Results taken from patent US5053338A, “Kinetic resolution of pyridazinones using lipase” (Glaxo Inc., priority 1990, dated 1991).

Key:
[1] = system: rat aorta; test: Rat Aorta Protocol (relaxation of phenylephrine-contracted rat aorta rings); type: cell-based; settings: phenylephrine 1×10^-7 M, methylene blue and propranolol present, endothelium removed, read-out: IC50 (concentration producing a relaxation equivalent to 50% of the maximal relaxation induced by nitroprusside)
Method: Such vasorelaxation appears to be related to inhibition of the phosphodiesterase (PDE) isozyme related to the cardiac sarcoplasmic reticulum. Thus, relaxation of rat aorta can be used as a screen to eliminate compounds which are not PDE inhibitors prior to testing for actual inotropic activity.
Rings of rat aorta (endothelium removed) were prepared for the measurement of isometric force in isolated tissue organ chambers essentially as previously described by T. J. Rimele et al in the Journal of Pharmacol. Exp. Ther. 245:102-111 (1988). The experimental portion of the protocol began with the addition of methylene blue (1×10^-5 M) and propranolol (1×10^-6 M) to each organ chamber to inhibit basal cGMP accumulation due to soluble guanylate cyclase and beta-adrenoceptors.Phenylephrine (1×10^-7 M) was then added and the rings were allowed to obtain a stable contractile response after which time, the test compound was added in a cumulative fashion. The relaxation induced by each concentration of the test compound was expressed as a percentage of the maximal relaxation produced by nitroprusside (1×10^-4 M) The results were graphically represented as a plot of the percentage relaxation vs. the negative log of the molar concentration of the test compound. […]

[2] = system: anesthetized dogs (left ventricular dP/dt); test: Anesthetized Dog: inotropic effect (increase in baseline dP/dt); type: in vivo; settings: infusion of atenolol
Method: Inotropic effects were evaluated in barbiturate-anesthetized dogs by differentiating left intraventricular pressure. This procedure was carried out essentially as described by M. K. Grizzel et al in the FASEB Journal, Vol. 3, page 1039, abstract 4728 (1989). […] Cardiac output was determined via thermodilution with a Spectramed computer (Starcom, Oxnard, Calif.) and a 5F Swan Ganz catheter which was inserted into the right jugular vein and positioned in the pulmonary artery. […] A lead II electrocardiogram was measured using subcutaneous electrodes. […] Rectal temperature was monitored and maintained at 37°-38° C. with a heating pad (Baxter Health Care model K20, McGaw Park, Ill.). All variables were recorded using a Gould 3800S physiograph.
Isoproterenol ([…]) was injected i.v. into the cephalic vein at 10 min intervals except for when the test drug infusion was begun. […] Inhibition of the isoproterenol responses on contractibility (dP/dt), heart rate and diastolic blood pressure were determined at each dose of test compound. The inotropic effect of each compound was determined by comparing the level of dP/dt at the end of each 10 min period to that of the level of dP/dt just prior to the infusion of test compound. […]

[3] = system: rat aorta; settings: R. F. Kauffman et al., J. Pharmacol. Exp. Ther. 242:864-872 (1987); cited from earlier work

IC50 [1] [nM]	SMILES	effect of atenolol on the inotropic effects [2]	relaxation of rat aorta [3]
340	O=C(COc1ccc(C2=NNC(=O)CC2)cc1Cl)NCCNC[C@H](O)COc1ccccc1 [Example 19, 6-{4-[N-[2-[3-phenoxy-2-hydroxypropylamino]ethyl]carbamoylmethoxy]-3-chlorophenyl}-4,5-dihydro-3(2H)-pyridazinone]	not blocked by atenolol	–
–	CSc1ccc(C(=O)c2[nH]c(=O)[nH]c2C)cc1 [enoximone]	–	marked relaxation
–	Cc1[nH]c(=O)c(C#N)cc1-c1ccncc1 [milrinone]	–	marked relaxation
